The source of these data is patent US20060063759A1, “Tricyclic steroid hormone nuclear receptor modulators” (priority 2002, published 2006).

The structures appear in SMILES notation. pKi: −log10 of the molar value. Bounds are passed on as bounds.

One assay addresses T1, human MR (Homo sapiens, UniProt P08235).
T1 construct: The full length human MR gene is cloned from a human kidney or human brain cDNA library; His tag from the pAcHLT vector (own knowledge); made in house; host or cells: Sf9 insect cells (baculovirus, pAcHLT transfer vector)
T1 sequence (P08235 1-984): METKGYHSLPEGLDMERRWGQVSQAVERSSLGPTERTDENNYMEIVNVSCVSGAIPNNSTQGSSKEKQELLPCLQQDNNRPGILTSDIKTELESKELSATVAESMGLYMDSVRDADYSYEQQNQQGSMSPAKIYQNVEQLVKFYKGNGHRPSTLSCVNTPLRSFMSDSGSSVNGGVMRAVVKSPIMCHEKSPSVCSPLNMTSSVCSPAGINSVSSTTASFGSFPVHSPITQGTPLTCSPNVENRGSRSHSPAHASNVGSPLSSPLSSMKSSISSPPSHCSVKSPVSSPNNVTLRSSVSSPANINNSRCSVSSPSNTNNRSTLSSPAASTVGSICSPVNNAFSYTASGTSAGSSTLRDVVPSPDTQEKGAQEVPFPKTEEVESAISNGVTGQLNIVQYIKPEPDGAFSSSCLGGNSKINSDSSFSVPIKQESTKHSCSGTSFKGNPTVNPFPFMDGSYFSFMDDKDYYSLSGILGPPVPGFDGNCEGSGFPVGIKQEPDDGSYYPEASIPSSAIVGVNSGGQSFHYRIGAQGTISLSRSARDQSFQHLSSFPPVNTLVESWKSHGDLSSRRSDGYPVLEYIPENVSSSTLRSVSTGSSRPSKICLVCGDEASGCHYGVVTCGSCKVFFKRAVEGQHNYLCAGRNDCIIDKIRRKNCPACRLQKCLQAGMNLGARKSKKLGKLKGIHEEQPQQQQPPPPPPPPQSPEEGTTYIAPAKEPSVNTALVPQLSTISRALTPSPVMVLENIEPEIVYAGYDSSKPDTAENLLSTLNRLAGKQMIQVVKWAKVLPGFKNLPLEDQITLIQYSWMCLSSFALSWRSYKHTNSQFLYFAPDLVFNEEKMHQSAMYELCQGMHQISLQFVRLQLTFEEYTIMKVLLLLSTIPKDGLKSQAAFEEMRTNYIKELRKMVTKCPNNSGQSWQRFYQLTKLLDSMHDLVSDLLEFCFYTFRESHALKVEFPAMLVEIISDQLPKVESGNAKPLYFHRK
As to the kind of experiment: Mineralocorticoid Receptor Binding Assay ([3H]-aldosterone). Conditions: [3H]-aldosterone binding, human MR expressed in Sf9 cells; read-out: MR Ki. The method, boiled down: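 Receptor source: freeze-thaw lysate of baculovirus-infected Sf9 cells carrying full-length human MR, 20-25 μg protein. Incubation ~16 h at 4 °C with shaking, pH 7.5 buffer containing 30 mM sodium molybdate and 10% glycerol.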

Another assay addresses T2, glucocorticoid receptor (Homo sapiens, UniProt P04150).
T2 construct: containing 50-200 ug of A549 cell extract and 1.86 nM [^3H]-dexamethasone; host or cells: A549 human lung epithelial cells (sonicated cell extract)
T2 sequence (P04150 1-777): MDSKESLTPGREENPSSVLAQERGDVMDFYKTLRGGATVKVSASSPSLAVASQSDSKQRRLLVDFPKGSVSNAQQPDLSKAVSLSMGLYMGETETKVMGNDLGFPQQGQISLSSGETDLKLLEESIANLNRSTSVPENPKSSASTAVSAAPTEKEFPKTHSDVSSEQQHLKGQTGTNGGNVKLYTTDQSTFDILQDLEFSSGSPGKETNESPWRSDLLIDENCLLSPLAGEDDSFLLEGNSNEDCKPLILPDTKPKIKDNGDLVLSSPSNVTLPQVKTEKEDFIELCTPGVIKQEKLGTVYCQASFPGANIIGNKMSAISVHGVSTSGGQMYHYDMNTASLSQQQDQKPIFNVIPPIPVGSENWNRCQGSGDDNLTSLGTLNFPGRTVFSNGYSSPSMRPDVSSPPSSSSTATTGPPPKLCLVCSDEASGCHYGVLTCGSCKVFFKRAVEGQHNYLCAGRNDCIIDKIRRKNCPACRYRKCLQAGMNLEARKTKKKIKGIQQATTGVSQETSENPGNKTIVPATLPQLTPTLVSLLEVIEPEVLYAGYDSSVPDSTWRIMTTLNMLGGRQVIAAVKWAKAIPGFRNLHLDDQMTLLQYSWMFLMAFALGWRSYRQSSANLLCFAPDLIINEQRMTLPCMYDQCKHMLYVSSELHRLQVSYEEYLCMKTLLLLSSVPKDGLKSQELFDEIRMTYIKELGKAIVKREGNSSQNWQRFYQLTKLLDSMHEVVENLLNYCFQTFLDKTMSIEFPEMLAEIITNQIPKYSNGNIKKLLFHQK
As to the kind of experiment: Glucocorticoid Receptor Binding Assay ([3H]-dexamethasone, A549 cell extract). Conditions: [3H]-dexamethasone binding, read-out: GR Ki. An outline of the steps:
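Displacement of [3H]-dexamethasone (1.86 nM) from glucocorticoid receptor in sonicated A549 lung epithelial cell extracts, 16 h at 4 °C, pH 7.2 molybdate-containing buffer. Bound radioactivity was scintillation-counted after charcoal/dextran stripping of free ligand.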

One may read the pKi as the Ki on a negative log10 scale, so that one unit is a factor of ten.

Consider `O=c1[nH]c2ccc(/C=C3\c4ccccc4CCc4cccc(Cl)c43)cc2[nH]1` [Example 466], for which the pKi at human MR was above 6.30; on glucocorticoid receptor, above 6.00.
The like results for `O=S(=O)(Nc1cccc(C=C2c3ccccc3CCc3cc(Cl)ccc32)c1)c1cccs1` [Example 295] were, in that order, above 6.30 and above 6.30.
As to `CS(=O)(=O)Nc1cccc(/C=C2/c3ccccc3CCc3cc(N)ccc32)c1` [Example 408], the pKi on human MR and on glucocorticoid receptor was above 6.30 each time.
As to `Cc1ccc2c(c1)CCc1ccccc1/C2=C\c1cccc(NS(C)(=O)=O)c1` [Example 327], the pKi at human MR and on glucocorticoid receptor was above 6.30 in each case.
For `CS(=O)(=O)Nc1cccc(/C=C2/c3ccccc3CCc3cc(C(N)=O)ccc32)c1` [Example 415], the pKi at human MR and at glucocorticoid receptor was above 6.30 each time.
On to `O=c1[nH]c2cc(C=C3c4ccc(F)cc4CCc4cc(F)ccc43)ccc2n1CCN1CCOCC1` [Example 436, 5-(2,8-difluoro-10,11-dihydro-dibenzo[a,d]cyclohepten-5-ylidenemethyl)-1-(2-morpholin-4-yl-ethyl)-1,3-dihydro-benzoimidazol-2-one], for which the figures for the pKi on human MR and on glucocorticoid receptor were above 6.30 and above 6.00, respectively.
The like results for `O=c1[nH]c2cc(/C=C3/c4ccccc4CCc4c(Cl)cccc43)ccc2o1` [Example 221(a)] were, in that order, above 6.30 and above 6.30.
In the case of `CN(C)c1ccc2c(c1)CCc1ccccc1C2=Cc1cccc(NS(C)(=O)=O)c1` [Example 402], the results for the pKi on human MR and at glucocorticoid receptor were above 6.30 and above 5.00, respectively.
The like results for `COc1cccc2c1OCc1ccccc1/C2=C\c1cccc(NS(C)(=O)=O)c1` [Example 271, N-[3-(4-Methoxy-6H-dibenzo[b,e]oxepin-11-ylidenemethyl)-phenyl]-methanesulfonamide] were, in that order, above 6.30 and above 6.30.
The like results for `CS(=O)(=O)Nc1cccc(/C=C2\c3ccccc3COc3cc(C(F)(F)F)ccc32)c1` [Example 683] were, in that order, above 6.30 and above 6.30.
The like results for `O=c1[nH]c2cc(/C=C3\c4ccc(F)cc4CCc4ncccc43)ccc2s1` [Example 536] were, in that order, above 6.30 and above 6.30.
With `COc1ccc2c(c1)COc1ccccc1/C2=C(/C)c1cccc(NS(C)(=O)=O)c1` [Example 817], the pKi on human MR and on glucocorticoid receptor was above 6.30 in each case.
For the molecule `COc1ccc(N)cc1C=C1c2ccccc2CCc2ccccc21` [Example 41, 3-(10,11-Dihydro-dibenzo[a,d]cyclohepten-5-ylidenemethyl)-4-methoxy-phenylamine], the pKi is above 6.00 on human MR and above 5.00 on glucocorticoid receptor.
The like results for `Nc1ccc(C=C2c3ccccc3CCc3cc(Cl)ccc32)cc1` [Example 394] were, in that order, above 6.30 and above 6.30.
As for `O=c1[nH]c2cc(/C=C3/c4ccccc4COc4cc(F)ccc43)ccc2n1CCN1CCOCC1` [Example 712], the pKi at human MR and on glucocorticoid receptor was above 6.30 in each case.
For `C/C(=C1\c2ccc(Cl)cc2COc2cc(F)ccc21)c1cccc(NS(C)(=O)=O)c1` [Example 804], the pKi on human MR and on glucocorticoid receptor was above 6.30 throughout.
On to `CS(=O)(=O)Nc1cccc(/C=C2\c3ccccc3CCc3cccnc32)c1` [Example 249, (E)-N-[3-(5,6-Dihydro-benzo[5,6]cyclohepta[1,2-b]pyridin-11-ylidenemethyl)-phenyl]-methanesulfonamide], for which the pKi at human MR and on glucocorticoid receptor was above 6.30 each time.
For the molecule `Oc1cccc(C=C2c3ccccc3CCc3c(F)cccc32)c1` [185(a), 3-(1-Fluoro-10,11-dihydro-dibenzo[a,d]cyclohepten-5-ylidenemethyl)-phenol], the pKi at human MR and on glucocorticoid receptor was above 6.30 throughout.
As to `CS(=O)(=O)Nc1cccc(/C=C2/c3ccccc3COc3ccc(F)cc32)c1` [Example 671], the pKi on human MR and on glucocorticoid receptor was above 6.30 in each case.
